Test results published in US10688188B2, “Polytetrafluoroethylene co-polymer emulsions” (W. L. Gore & Associates, Inc., priority 2012, dated 2020).

Experiment: Solubility statements
Format: physicochemical

Row | Compound | solubility in acetone (DSP in acetone) | solubility in Fluorinert (Fluorinert FC77) | solubility in acetone (Solution V) (1.0 g in 100 g Solution V)
1 | C[C@@H]1C[C@H]2[C@@H]3CCC4=CC(=O)C=C[C@]4(C)[C@@]3(F)[C@@H](O)C[C@]2(C)[C@@]1(O)C(=O)COP(=O)(O)O [DSP, dexamethasone sodium phosphate] | nonsolvent | nonsolvent | –
2 | C[C@@H]1C[C@H]2[C@@H]3CCC4=CC(=O)C=C[C@]4(C)[C@@]3(F)[C@@H](O)C[C@]2(C)[C@@]1(O)C(=O)CO [dexamethasone] | – | – | dissolve completely
